Assay results from patent publication US7790762B2, “Compounds and methods for thiol-containing compound efflux and cancer treatment” (National Jewish Health, priority 2002, dated 2010).
Like-named read-outs stand apart in the source and are kept apart here.

How the values were obtained:
epithelial cells = test: Effects of compounds on extracellular GSH transport (Table 3); type: cell-based; conditions: Epithelial cell, read-out: % Increase Over Control (extracellular GSH)
A549 cells [1] = test: Intracellular GSH levels by HPLC-EC in A549 cells; type: cell-based, human; conditions: for activity at 75 µM / activity at 50 µM / activity at 25 µM: Homo sapiens; for activity at 75 µM: A549, 75 μM; for Intracellular GSH levels, % compared to control / Int. GSH % con. / activity at 25 µM: A549, 25 μM; for activity at 50 µM: A549, 50 μM
Protocol: (§1) Cell lines and culture conditions. Human lung epithelial cancer (A549), human leukemia HL-60 and human prostate (PC-3) tumor cells were purchased from ATCC (Manassas, Va.). A549 and PC-3 cells were grown in Ham's F12 medium (F12) and Kaighn's modification of Ham's F12 medium (F12K) with 2 mM L-glutamine (ATCC), respectively, supplemented with 10% fetal bovine serum (FBS) and 5% pen/strep (10,000 unit, Cellgro). HL-60 cells were grown in Iscove's modified Dulbecco's medium with 4 mM L-glutamine (ATCC) supplemented with 20% FBS and 5% pen/strep. Cell were grown in T-75 flask at 37° C. and 5% CO2 air atmosphere and in 24-well plates for GSH levels and LDH release measurements.
(§2) Intracellular levels of GSH. Intracellular GSH levels can be determined by HPLC-EC. Cultured cells from 24-well plates were washed once with 1 ml of PBS and then re-suspended in 0.5 ml of distilled water with 40 μM of digitonin (2 mM stock solution in DMSO) for 30 min at room temperature. Then, 50 μl of 10% meta-phosphoric acid were added (1% final concentration), the samples were sonicated for 2 min, centrifuged at 20,000 g for 10 min, and 0.2 ml of supernatant placed in vials for HPLC analysis. […] The flow rate was […]. The retention time for GSH in these conditions was 7.5 min. The HPLC instrument was from ESA, Inc. (Chelmsford, Mass.), equipped with an autosampler (model 540) and a Coul array detector (model 5600A). The potential applied was +0.75 V vs. H/Pd electrode, and the injection volume 5 μl.

HL-60 cells [2] = test: Intracellular GSH levels by HPLC-EC in HL-60 cells; type: cell-based, human; conditions: for effect on intracellular GSH (words): HL-60 cells
Protocol: as §1, §2

PC-3 cells [3] = test: Intracellular GSH levels by HPLC-EC in PC-3 cells; type: cell-based, human; conditions: for activity at 50 µM / activity at 25 µM: Homo sapiens, read-out: Int. GSH % con.; for activity at 50 µM: PC-3, 50 μM; for activity at 50 µM / Int. GSH % con. / activity at 25 µM: 24 hours treatment; for Int. GSH % con. / activity at 25 µM: PC-3, 25 μM
Protocol: as §1, §2

A549 cells [4] = test: Cytotoxicity as LDH release in A549 cells; type: cell-based, human; conditions: for LDH release, % of control at 75 µM: Homo sapiens, read-out: LDH rel. % con.; for LDH release, % of control at 75 µM / LDH rel. % con.: A549, 75 μM, 48 hours treatment
Protocol: as §1
(§3) Assessment of cytotoxicity. In one exemplary method, membrane integrity of A549, HL-60 and PC-3 cells was used as an index of drug-induced cytotoxicity, and was assessed by monitoring the release of cytosolic lactate dehydrogenase (LDH). LDH activity was measured in the culture medium and cell lysates (50 mM HEPES, Triton X-100 0.5%, pH 7) using a plate reader format as previously described (41). Briefly, 5 μl of cell culture supernatant and lysates were incubated with 0.24 mM NADH in a Tris/NaCl pH 7.2 buffer in 96-well plates for 5 min at 25° C. The reaction was started by the addition of 9.8 mM pyruvate and the consumption of NADH followed at 340 nm for 5 min at 30° C. Percent LDH release was calculated by the following: (supernatant LDH/supernatant LDH+lysate LDH)×100.

HL-60 cells [5] = test: Cytotoxicity as LDH release in HL-60 cells; type: cell-based, human; conditions: for LDH release, % of control at 50 µM: Homo sapiens, read-out: LDH rel. % con.; for LDH release, % of control at 50 µM / LDH rel. % con.: 48 hours treatment
Protocol: as §1, §3

PC-3 cells [6] = test: Cytotoxicity as LDH release in PC-3 cells; type: cell-based, human; conditions: PC-3, 50 μM, 48 hours treatment; for LDH release, % of control at 50 µM: Homo sapiens, read-out: LDH rel. % con.
Protocol: as §1, §3

[7] = 24 hours treatment, read-out: Int. GSH % con.
[8] = Homo sapiens, HL-60, 75 μM, 24 hours treatment, read-out: Int. GSH % con.
[9] = HL-60, 25 μM, 24 hours treatment
[10] = Homo sapiens, HL-60, 50 μM, 24 hours treatment, read-out: Int. GSH % con.
[11] = 2 h, read-out: Intracellular GSH levels, % compared to control

O=C(O)c1cc(S(=O)(=O)O)ccc1O [5-Sulfosalicylic Acid]
activation at 50 µM (epithelial cells): 142%

O=C(O)c1cc(/N=N/c2ccc(S(=O)(=O)Nc3ccccn3)cc2)ccc1O [Sulfasalazine, reference compound]
activation at 50 µM (epithelial cells): 211%

COc1ccccc1C(=O)O [Methylsalicylic Acid]
activation at 100 µM (epithelial cells): 169%

O=c1c(O)c(-c2ccc(O)cc2O)oc2cc(O)cc(O)c12 [Morin]
activity at 75 µM (A549 cells [1]; [7]): 72%
activity at 75 µM (HL-60 cells [2]; [8]): 86%
activity at 50 µM (PC-3 cells [3]): 125%
effect on intracellular GSH (words) (PC-3 cells [3]; PC-3 cells, 50-75 μM): stimulated an increase in intracellular GSH
LDH release, % of control at 75 µM (A549 cells [4]): 112%
LDH release, % of control at 50 µM (HL-60 cells [5]; HL-60, 50 μM): 97%
LDH release, % of control at 50 µM (PC-3 cells [6]): 80%

O=c1c(-c2ccc(O)cc2)coc2cc(O)cc(O)c12 [Genistein]
Intracellular GSH levels, % compared to control (A549 cells [1]; 4 h): 34.8 ± 1.1%
Int. GSH % con. (A549 cells [1]; 24 hours treatment): 5 % con.
Int. GSH % con. (HL-60 cells [2]; HL-60, 75 μM, 24 hours treatment): 57 % con.
Int. GSH % con. (PC-3 cells [3]): 81 % con.
LDH rel. % con. (A549 cells [4]): 350 % con.
LDH rel. % con. (HL-60 cells [5]; HL-60, 50 μM): 160 % con.
LDH rel. % con. (PC-3 cells [6]): 131 % con.

C[C@]12CC[C@@H]3c4cc(O)c(O)cc4CC[C@H]3[C@@H]1CC[C@@H]2O [2-HE, 2-hydroxyestradiol, reference compound]
Intracellular GSH levels, % compared to control (A549 cells [1]; 2 h): 69.0 ± 0.5%
Int. GSH % con. (A549 cells [1]; 24 hours treatment): <5 % con.
Int. GSH % con. (HL-60 cells [2]; [9]): 120 % con.
Int. GSH % con. (PC-3 cells [3]): 228 % con.
LDH rel. % con. (A549 cells [4]): 150 % con.
LDH rel. % con. (HL-60 cells [5]; HL-60, 25 μM): 250 % con.
LDH rel. % con. (PC-3 cells [6]): 113 % con.

Oc1ccc(C=Cc2cc(O)cc(O)c2)cc1 [Resveratrol]
activity at 75 µM (A549 cells [1]; [7]): 64%
effect on intracellular GSH (words) (HL-60 cells [2]): found effective in HL-60 cells
activity at 25 µM (HL-60 cells [2]; Homo sapiens, HL-60, 25 μM, 24 hours treatment, read-out: Int. GSH % con.): 61%
activity at 25 µM (PC-3 cells [3]): 108%
LDH release, % of control at 75 µM (A549 cells [4]): 249%
LDH release, % of control at 50 µM (HL-60 cells [5]; HL-60, 50 μM): 143%
LDH release, % of control at 50 µM (PC-3 cells [6]): 135%

O=C(/C=C/c1ccccc1)c1cc(O)ccc1O [2′,5′-DHC, 2′ 5′ dihydroxychalcone]
Intracellular GSH levels, % compared to control (A549 cells [1]; 2 h): <5%
Intracellular GSH levels, % compared to control (A549 cells [1]; 4 h): <5%
Int. GSH % con. (A549 cells [1]; 24 hours treatment): <5 % con.
Int. GSH % con. (HL-60 cells [2]; [9]): <5 % con.
Int. GSH % con. (PC-3 cells [3]): 67 % con.
LDH rel. % con. (A549 cells [4]): 273 % con.
effect on the toxicities of rotenone (50 μM), curcumin (50 μM) and 2-ME (50 μM) (A549 cells [4]; A549 cells, 48 hours, compound 10 μM (FIG. 20D)): potentiated
LDH rel. % con. (HL-60 cells [5]; HL-60, 50 μM): 310 % con.
LDH rel. % con. (PC-3 cells [6]): 246 % con.

O=c1c(O)c(-c2ccc(O)c(O)c2)oc2cc(O)ccc12 [Fisetin]
activity at 50 µM (A549 cells [1]; [7]): 50%
effect on intracellular GSH (words) (HL-60 cells [2]): relatively effective for depleting GSH
activity at 50 µM (HL-60 cells [2]; [10]): 16%
activity at 50 µM (PC-3 cells [3]): 100%
LDH release, % of control at 75 µM (A549 cells [4]): 267%
toxicity (HL-60 cells [5]; HL-60 cells): toxic
LDH release, % of control at 50 µM (HL-60 cells [5]; HL-60, 50 μM): 166%
LDH release, % of control at 50 µM (PC-3 cells [6]): 109%

O=c1c(O)c(-c2ccc(O)cc2)oc2cc(O)cc(O)c12 [Kaempferol, 3,5,7,4′quadrahydroxyflavone]
Intracellular GSH levels, % compared to control (A549 cells [1]; 4 h): 29.6 ± 0.9%
Int. GSH % con. (A549 cells [1]; 24 hours treatment): 7 % con.
Int. GSH % con. (HL-60 cells [2]; HL-60, 50 μM, 24 hours treatment): 75 % con.
Int. GSH % con. (PC-3 cells [3]): 77 % con.
LDH rel. % con. (A549 cells [4]): 173 % con.
LDH rel. % con. (HL-60 cells [5]; HL-60, 50 μM): 128 % con.
LDH rel. % con. (PC-3 cells [6]): 115 % con.

CCCOC(=O)c1cc(O)c(O)c(O)c1 [Propyl Gallate, 3,4,5-trihydroxy-benzoic acid propyl ester]
activation at 50 µM (epithelial cells): 136%

O=c1cc(-c2ccccc2)oc2ccccc12 [Flavone, flavone]
activity at 25 µM (A549 cells [1]; [11]): 89.7 ± 0.6%
activity at 25 µM (A549 cells [1]; 4 h, read-out: Intracellular GSH levels, % compared to control): 29.7 ± 4.8%
activity at 25 µM (A549 cells [1]; [7]): < 5%
activity at 50 µM (HL-60 cells [2]; [10]): 85%
activity at 25 µM (PC-3 cells [3]): 84%
LDH release, % of control at 75 µM (A549 cells [4]): 164%
LDH release, % of control at 50 µM (HL-60 cells [5]; HL-60, 50 μM): 116%
LDH release, % of control at 50 µM (PC-3 cells [6]): 91%

Oc1cc(O)c2c(c1)O[C@H](c1ccc(O)c(O)c1)[C@H](O)C2 [Epicatechin, (−)-epicatechin]
activity at 75 µM (A549 cells [1]; [7]): 47%
activity at 75 µM (HL-60 cells [2]; [8]): 90%
activity at 50 µM (PC-3 cells [3]): 115%
LDH release, % of control at 75 µM (A549 cells [4]): 104%
LDH release, % of control at 50 µM (HL-60 cells [5]; HL-60, 50 μM): 76%
LDH release, % of control at 50 µM (PC-3 cells [6]): 88%

O=c1cc(-c2ccccc2)oc2cc(O)ccc12 [7-HF, 7-Hydroxyflavone]
effect on intracellular GSH (words) (A549 cells [1]; A549 cells): almost as effective as chrysin
activity at 25 µM (A549 cells [1]; [11]): 58.1 ± 1.4%
activity at 25 µM (A549 cells [1]; [7]): < 5%
activity at 50 µM (HL-60 cells [2]; [10]): 56%
activity at 25 µM (PC-3 cells [3]): 63%
LDH release, % of control at 75 µM (A549 cells [4]): 113%
LDH release, % of control at 50 µM (HL-60 cells [5]; HL-60, 50 μM): 113%
LDH release, % of control at 50 µM (PC-3 cells [6]): 96%

COc1ccc2cc3[n+](cc2c1OC)CCc1cc2c(cc1-3)OCO2 [Berberine]
activation at 100 µM (epithelial cells): 170%

O=c1cc(-c2ccccc2)oc2cc(O)c(O)c(O)c12 [Baicalein, 5,6,7 trihydroxyflavone]
activity at 50 µM (A549 cells [1]; [7]): 41%
activity at 75 µM (HL-60 cells [2]; [8]): 82%
activity at 50 µM (PC-3 cells [3]): 100%
LDH release, % of control at 75 µM (A549 cells [4]): 206%
LDH release, % of control at 50 µM (HL-60 cells [5]; HL-60, 50 μM): 129%
LDH release, % of control at 50 µM (PC-3 cells [6]): 94%

O=c1c(O)c(-c2ccccc2)oc2cc(O)cc(O)c12 [Galangin, 3,5,7 trihydroxyflavone]
activity at 25 µM (A549 cells [1]; [11]): 62.9 ± 0.4%
activity at 25 µM (A549 cells [1]; [7]): < 5%
activity at 50 µM (HL-60 cells [2]; [10]): 69%
activity at 25 µM (PC-3 cells [3]): 68%
LDH release, % of control at 75 µM (A549 cells [4]): 155%
LDH release, % of control at 50 µM (HL-60 cells [5]; HL-60, 50 μM): 114%
LDH release, % of control at 50 µM (PC-3 cells [6]): 140%

Nc1ccc(C(=O)O)c(O)c1 [p-Aminosalicylic Acid, 4-amino-2-hydroxybenzoic acid, reference compound]
activation at 100 µM (epithelial cells): 414%

COc1ccc([C@@H]2Sc3ccccc3N(CCN(C)C)C(=O)[C@@H]2OC(C)=O)cc1 [Diltiazem, reference compound]
activation at 100 µM (epithelial cells): 119%
